Data from patent US20100197788A9, “Preventive or therapeutic agent for disease caused by decrease in lacrimal fluid” (priority 2005, published 2010).
Structures can show the parent of a compound that is named as a salt.

Legend:
rabbit conjunctiva = test: Mucin secretion from the rabbit conjunctiva following ocular instillation, impression cytology method (Example 5); format: in vivo; conditions: 0.1% solution, 50 μL, 30 min after instillation, vs vehicle, rabbits
Description: Four male Japanese white rabbits (about 3 kg) were allocated to each group. After rabbits were anesthetized with ketamine-xylazine (3:1), 50 μL of Compound 2 (0.1% solution), terbutaline sulfate (0.1% solution) or their vehicle (a phosphate buffer solution, pH 7.4) were instilled in either side of eyes. Mucin secretion from the conjunctiva was measured 30 min after instillation by impression cytology method. That is, after ocular instillation of 50 μL of a local anesthetic (0.4% oxybuprocaine hydrochloride by Santen Co.), residual tear was wiped 5 min after instillation and 3×3 mm cellulose acetate filter paper was pressed on the conjunctiva for 30 sec. Then, PAS staining was performed with the recovered filter papers in the same manner as in Example 2. After filter papers were cleared and embedded, the number of PAS positive goblet cells existing in a certain visual field of a microscope was counted. Decreases in the count of PAS positive goblet cells indicate that mucin secretion from the conjunctiva is facilitated. […] However, terbutaline sulfate had no effect (FIG. 9).

[1] = tested on: male Japanese white rabbits; test: Measurement of tear in rabbits given a β3 AR stimulant having a β2 AR stimulating activity (Example 2); format: in vivo, rabbit; conditions: for total quantity of protein secretion in tear / total quantity of tear secretion: 60 min, compared to Control group
Description: Four fasting male Japanese white rabbits (about 3 kg) were allocated to each group. Compound 2 (0.3, 1 or 10 mg/kg), which is a β3 AR stimulant having a β2 AR stimulating activity, terbutaline sulfate (10 mg/kg), which is a β2 AR stimulant, or their vehicle (distilled water) was administered to the duodenum through a needle placed in the duodenum of a rabbit which was anesthetized with urethane (25%, 5 mL/kg, subcutaneously). In the same manner as in Example 1, quantities of tear secretion and protein in tear were measured for each 5 min before drug administration and at 5, 20, 30, 40 and 50 min after drug administration. The total quantities of tear secretion and protein in tear were defined as the sum total of the quantities of secretion at each measurement time during 60 min after administration of the test drug. Each […] of the change in the quantity of tear was considered as 1 μL in tabulation.

male SD strain rats = test: Measurement of tear in rats given a β3 AR stimulant having a β2 AR stimulating activity (Example 3); format: in vivo, rat; conditions: for total quantity of protein secretion in tear / total quantity of tear secretion: 60 min, compared to Control group
Description: Nine (9) to 10 fasting male SD strain rats (7 weeks old) were allocated to each group. Rats were fixed in prone position under urethane anesthesia (25%, 5 mL/kg, subcutaneously). Compound 2 (0.3, 1 or 10 mg/kg), which is a β3 AR stimulant having a β2 AR stimulating activity, terbutaline sulfate (10 mg/kg), which is a β2 AR stimulant, or their vehicle (distilled water) were administered to the duodenum through a needle placed in the duodenum. One end of a capillary (Drummond Microdispenser Co. 10 μL) was placed at the inner canthus of rat right eye after tear was wiped. The quantity of tear secretion was measured by the length of the capillary filled with tear in 60 minutes after drug administration. The total quantity of tear secretion (μL) was calculated using the inner diameter of the capillary and the length of the capillary filled with tear. After the quantity of tear secretion was measured, the tear in the capillary was recovered in a tube to measure the protein concentration using Micro BCA Protein Assay Reagent Kit (Pierce Co.). The total quantity of protein in tear was calculated using the obtained protein concentration and the total quantity of tear secretion.

[2] = tested on: male Japanese white rabbits; test: Measurement of tear in rabbits following ocular instillation (Example 4); format: in vivo, rabbit; conditions: 0.1% solution, 50 μL
Description: Four fasting male Japanese white rabbits (about 3 kg) were allocated to each group. After rabbits were anesthetized with urethane (25%, 5 mL/kg, subcutaneously), 50 μL of Compound 2 (0.1% solution) or the vehicle (a phosphate buffer solution, pH 7.4) was instilled in either right or left eye. The quantity of tear secretion was measured and calculated for each 5 min before and at 5 and 20 min after instillation in the same manner as in Example 1. The difference in the quantity of tear secretion before administration of a test drug and that at each measurement time after ocular instillation was defined as a change in the quantity of tear secretion. Each milligram of the change in the quantity of tear secretion was considered as 1 μL in tabulation.

[3] = tested on: male Japanese white rabbits; test: Measurement of tear secretion in rabbits given a β3 AR stimulant (Example 1), with or without ICI-118551 pre-treatment; format: in vivo, rabbit
Description: Four fasting male Japanese white rabbits (about 3 kg) were allocated to each group. Compound 1 (hydrochloride, 3 or 30 mg/kg), a β3 AR stimulant, or the vehicle (0.5% gum Arabic) was administered to the duodenum through a needle placed in the duodenum of a rabbit, which was anesthetized with urethane (25%, 5 mL/kg, subcutaneously). The quantity of tear secretion was measured for 5 min before drug administration and for 5 min at 20 min after drug administration in the following manner. One piece each of pre-weighed filter paper (Wattman No. 41, 0.22 mm thick, 2.5×1.5 mm) was inserted to each of the upper and lower eyelids of either right or left eye. The difference in weight of the filter papers before and after insertion (post-insertion weight−pre-insertion weight) was defined as the quantity of tear secretion. Fifty (50) μL of a local anesthetic agent, 0.4% oxybuprocaine hydrochloride (Santen Co.), was instilled into eyes 5 min before each measurement. Tear and the instilled local anesthetic were wiped immediately before the filter paper was inserted. Filter papers recovered after each measurement were placed into tubes. A phosphate buffer (pH 7.4) (500 μL) was added to each of the tubes, and they were agitated for 30 sec. After the filter papers were removed and the mixture was centrifuged at 1,880×g for 5 min, protein concentrations in supernatant were measured using Micro BCA Protein Assay Reagent Kit (Pierce Co.). The quantity of protein in tear was calculated based on the protein concentration and the quantity of tear secretion at each time. The difference in the quantity of tear secretion before administration of a test drug and that at each measurement after administration was defined as a change in the quantity of tear secretion or protein in tear. Each milligram of the change in the quantity of tear was taken as 1 μL in tabulation. As a result, administration of Compound 1 (hydrochloride, 3 or 30 mg/kg) into the duodenum facilitated the tear secretion and protein secretion in tear.
In addition, in order to study the role played by a β2 AR stimulating activity in the above-described actions of Compound 1, 30 μg/kg of ICI-118551 (Sigma Co.), a selective β2 AR inhibitor, was administered intravenously 5 min before administration of Compound 1 (30 mg/kg) and the same test was performed. The facilitating activities of tear secretion and protein secretion in tear by Compound 1 were not affected by pre-treatment with the selective β2 AR inhibitor, ICI-118551 (30 μg/kg, i.v.) (FIG. 5). The results confirmed that the Compound 1's activities facilitating tear secretion and protein secretion in tear were exerted by way of β3 AR.

[4] = 10 mg/kg into the duodenum, compared to Compound 2 (10 mg/kg) group
[5] = 0.3, 1 and 10 mg/kg into the duodenum
[6] = doses of 1 mg/kg and above into the duodenum
[7] = Compound 1 30 mg/kg, ICI-118551 30 μg/kg i.v. 5 min before
[8] = hydrochloride, 3 or 30 mg/kg into the duodenum, anesthetized rabbits, 5 min at 20 min after administration vs before

## CC(C)(C)NCC(O)c1cc(O)cc(O)c1 (stereo not drawn) [terbutaline sulfate, reference compound]
Rabbit conjunctiva
  mucin secretion from the conjunctiva (count of PAS positive goblet cells): no effect
[1]; 10 mg/kg into the duodenum
  total quantity of protein secretion in tear: significantly increased
  total quantity of tear secretion: significantly increased
[1]; [4]
  increase in total quantity of protein secretion in tear: significantly lower
  increase in total quantity of tear secretion: significantly lower
Male SD strain rats; 10 mg/kg into the duodenum
  total quantity of protein secretion in tear: significantly increased
  total quantity of tear secretion: significantly increased
Male SD strain rats; [4]
  total quantity of protein in tear: significantly lower

## C[C@H](NCCc1ccc(OCC(=O)O)cc1)[C@H](O)c1ccc(O)cc1 [Compound 2]
Rabbit conjunctiva
  mucin secretion from the conjunctiva (count of PAS positive goblet cells): facilitated mucin secretion from the conjunctiva more than the vehicle did
[2]
  tear secretion: facilitated
[2]; compared to Control group
  quantity of tear secretion measured for 5 min after ocular instillation: significantly increased
[1]; [5]
  protein secretion in tear: facilitated dose-dependently
  tear secretion: facilitated dose-dependently
[1]; [6]
  total quantity of protein secretion in tear: significantly increased
  total quantity of tear secretion: significantly increased
Male SD strain rats; [5]
  protein secretion in tear: facilitated dose-dependently
  tear secretion: facilitated dose-dependently
Male SD strain rats; [6]
  total quantity of protein secretion in tear: significantly increased
  total quantity of tear secretion: significantly increased

## CCOC(=O)COc1cc(C)c(CCN[C@@H](C)[C@H](O)c2ccc(O)cc2)cc1C [Compound 1, ethyl 2-[4-[2-[[(1S,2R)-2-hydroxy-2-(4-hydroxy-phenyl)-1-methylethyl]amino]ethyl]-2,5-dimethylphenoxy]-acetate]
[3]; 30 mg/kg into the duodenum, compared to Control group (p<0.05, Dunnett)
  change in the quantity of protein in tear: significantly increased
[3]; [7]
  facilitating activity of protein secretion in tear after pre-treatment with selective β2 AR inhibitor: not affected
  facilitating activity of tear secretion after pre-treatment with selective β2 AR inhibitor: not affected
[3]; [8]
  protein secretion in tear: facilitated
  tear secretion: facilitated
